Results reported in patent publication US20250161338A1, “Compounds for Anti-aging Intervention” (AGENCY FOR SCIENCE, TECHNOLOGY AND RESEARCH, priority 2022, published 2025).
Where a name gives a salt, the structure may show the parent alone. Residues, ends and D or L forms follow the SMILES beside them.

Experiments:
[1] = system: prototrophic yeast strain (CEN.PK113-7D); assay: Propidium iodide fluorescence-based CLS method in yeast (incl. high-throughput screening); assay type: cell-based, Saccharomyces cerevisiae; conditions: concentration tested 100 μM; for Yeast CLS increase: Yes/No call of the screen; for PI intensity: solvent DMSO or water, chronological age point Day 7 (72 h growth = Day 1), lower = more survival;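 on PI intensity: untreated reference is eight DMSO and water control wells per plate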
Protocol: Yeast strain was recovered from frozen glycerol stock at 30° C. on YPD agar medium. Yeast was left to propagate in SD medium overnight at 30° C. with shaking at 220 revolutions per minute (rpm). Cells propagated overnight were diluted to a starting optical density at 600 nm (OD600) of approximately 0.2 in fresh SD medium to begin the chronological lifespan (CLS) experiments.
(§1) CLS experiments were performed in 96-well plates with 200 μL yeast culture. Cellular inoculums were transferred into 96-well plates containing serially double-diluted concentrations (0 to 10 nM) of rapamycin. Cellular inoculum was transferred into 96-well plates containing serially double-diluted concentrations (0 to 8 mM) of 2,5-anhydro-D-mannitol, D-fructose, D-mannitol, D-maltose, and D-sorbitol in SD medium. Cells were incubated at 30° C., and the growth was measured at different time points. […] Cell survival was quantified at various age time points by three different approaches: (i) PI fluorescence-based method, (ii) outgrowth in YPD liquid medium, and (iii) spotting assay (FIG. 1).
Yeast cells (40 μL) from different age time points were transferred into a second 96-well plate (different to the 96-well plate in which the CLS analysis as outlined above was performed). Cells were washed and incubated in 100 μL 1×phosphate buffered saline (PBS) with propidium iodide (PI) (5 μg/mL) for 15 minutes in the dark. Positive and negative control samples were included for quantitative analysis. Positive control (cells boiled at 100° C. for 15 minutes) was PI-stained and processed in the same 96-well plate. Samples without PI-stained cells served as the negative control. After incubation, cells were washed and resuspended in 100 μL PBS. The fluorescence reading of the samples (excitation and emission wavelengths at 535 nm and 617 nm, respectively) and OD600 were measured with a microplate reader (BioTek, Winooski, Vermont, United States). The fluorescence intensity of each sample was normalized with OD600. The background fluorescence signal of the unstained negative sample was subtracted from the normalized fluorescence intensity of each sample. The obtained fluorescence intensity of the positive control (boiled dead cells) was considered 0% cell survival. Cell death was validated by allowing the boiled dead cells to grow in medium. Cell survival at different age time points of samples were calculated by normalizing the fluorescence intensity with positive control sample (boiled cells).
High-throughput screening of various chemicals was tested using the same protocol for the propidium iodide fluorescence-based method as described above. The prototrophic yeast strain (CEN.PK113-7D) was grown in the synthetic defined medium with different chemical reagents at their respective single testing concentration (Table 1) in addition to eight replicates of DMSO and water controls in 96-well plates at 30° C.

[2] = system: prototrophic yeast strain (CEN.PK113-7D); assay: Yeast outgrowth in YPD liquid medium (CLS of aged cells); assay type: cell-based, Saccharomyces cerevisiae; conditions: concentration tested 100 μM; OD600 nm after 24 h in YPD at 30° C.; age point day 14
Protocol: as §1
Outgrowth (OD600) of aged cells was measured by the microplate reader. Quantification of cell survival for each age point was determined as relative to Day 1 (considered 100% cell survival). This quantification was performed by using the formula,
[formula] • where OutgrowthDay n refers to the OD600 nm absorbance reading recorded on a specific day, OutgrowthDay 1 refers to the OD600 nm absorbance reading recorded on the first day where 100% cell survival is assumed.
The CLS of the aged cells was further determined by the yeast outgrowth in YPD liquid medium method as described above. […] At chronological age point day 14, 3-μL of culture were transferred to a second 96-well plate containing 200 μL YPD medium.

Structure (SMILES)	Yeast CLS increase [1]	PI intensity [1]	Outgrowth [2]	PI intensity ([1]; (monohydrate))
O=c1ccc2cc(O[C@@H]3O[C@H](CO)[C@@H](O)[C@H](O)[C@H]3O)c(O)cc2o1 [Esculin]	No	72,890.7	0.1	–
CCOC(=O)c1ccc(O)cc1 [Ethylparaben]	No	52,097.7	0.1	–
C=C1[C@H](OC(=O)c2ccccc2)C[C@H]2[C@@H](/C=C(\C)C(=O)[C@@]3(OC(C)=O)C[C@H](C)[C@H](OC(=O)c4ccccc4)[C@@H]3[C@H]1OC(C)=O)C2(C)C [Euphorbia Factor L2]	No	68,871.8	0.1	–
Cc1cc2nc3c(=O)[nH]c(=O)nc-3n(C[C@H](O)[C@H](O)[C@H](O)COP(=O)(O)OP(=O)(O)OC[C@H]3O[C@@H](n4cnc5c(N)ncnc54)[C@H](O)[C@@H]3O)c2cc1C [Flavin adenine dinucleotide (disodium salt)]	No	59,508.7	0.2	–
NC=O [Formamide]	No	64,135.2	0.1	–
O=C1NC(c2ccccc2)(c2ccccc2)C(=O)N1COP(=O)(O)O [Fosphenytoin (disodium), reference compound]	No	61,860.0	0.1	–
COC(=O)C1=CO[C@@H](O[C@@H]2O[C@H](CO)[C@@H](O)[C@H](O)[C@H]2O)[C@H]2[C@@H]1C=C[C@@]2(O)CO [Gardenoside]	No	65,525.5	0.1	–
C=C[C@@H]1C2=CCOC(=O)C2=CO[C@H]1O[C@@H]1O[C@H](CO)[C@@H](O)[C@H](O)[C@H]1O [Gentiopicroside]	No	59,804.7	0.1	–
CC(C)=CCC/C(C)=C/CO [Geraniol]	No	76,340.1	0.1	–
Cl.N[C@H]1C(O)O[C@H](CO)[C@@H](O)[C@@H]1O (stereo partly shown) [Glucosamine (hydrochloride)]	No	65,905.5	0.1	–
CC(CCC(=O)NCC(=O)O)C1CCC2C3CCC4CC(O)CCC4(C)C3CC(O)C12C (stereo not shown) [Glycodeoxycholic acid (monohydrate)]	No	–	0.1	73,459.3
C[C@H](CCC(=O)NCC(=O)O)[C@H]1CC[C@H]2[C@@H]3[C@@H](O)C[C@@H]4C[C@H](O)CC[C@]4(C)[C@H]3CC[C@]12C [Glycoursodeoxycholic acid]	No	64,205.2	0.1	–
Cc1cc2c(C(C)C)c(O)c(O)c(C=O)c2c(O)c1-c1c(C)cc2c(C(C)C)c(O)c(O)c(C=O)c2c1O [Gossypol]	–	65,220.1	0.1	–
Cc1ccc(C(C)C)cc2c(C)ccc1-2 [Guaiazulene]	No	58,776.1	0.1	–
C/C=C1\C(=O)C[C@H]2[C@@H]3CCC4=CC(=O)CC[C@]4(C)[C@H]3CC[C@]12C [Guggulsterone]	No	63,881.9	0.1	–
C[C@@H]1O[C@@H](O[C@H]2[C@H](O[C@H]3CC[C@@]4(C)[C@@H](CC[C@]5(C)[C@@H]4CC=C4[C@@H]6CC(C)(C)CC[C@]6(C(=O)O[C@@H]6O[C@H](CO[C@@H]7O[C@H](CO)[C@@H](O[C@@H]8O[C@@H](C)[C@H](O)[C@@H](O)[C@H]8O)[C@H](O)[C@H]7O)[C@@H](O)[C@H](O)[C@H]6O)CC[C@]45C)[C@]3(C)CO)OC[C@H](O)[C@@H]2O)[C@H](O)[C@H](O)[C@H]1O [Hederacoside C]	No	73,515.9	0.1	–
CC1(C)CC[C@]2(C(=O)O)CC[C@]3(C)C(=CC[C@@H]4[C@@]5(C)CC[C@H](O)[C@@](C)(CO)[C@@H]5CC[C@]43C)[C@@H]2C1 [Hederagenin]	No	73,281.0	0.1	–

Structure (SMILES)	Yeast CLS increase [1]	PI intensity [1]	Outgrowth [2]	PI intensity ([1]; (monohydrate))
CC[C@H](C)[C@@H]1NC(=O)[C@@H]2CCCN2C(=O)[C@@H]2CCCN2C(=O)[C@@H]2CCCN2C(=O)[C@H](CC(C)C)NC(=O)CNC(=O)CNC(=O)[C@H](Cc2ccccc2)NC1=O [Heterophyllin B] (cyclo(FGGLPPPI))	No	61,587.8	0.2	–
O=c1cc(O)cc(/C=C/c2ccc(O)c(O)c2)o1 [Hispidin]	No	67,098.8	0.1	–
COc1cc(CC(=O)O)ccc1O [Homovanillic acid]	No	65,033.1	0.1	–
CCCCCCCCCCCCCCCC(=O)NCCO [Impulsin]	No	71,903.7	0.1	–
C=C1C(=O)O[C@@H]2C[C@@]3(C)CCCC(=C)[C@@H]3C[C@H]12 [Isoalantolactone]	No	94,566.8	0.1	–
O=C(/C=C/c1ccc(O)c(O)c1)O[C@@H]1C[C@](O)(C(=O)O)C[C@@H](OC(=O)/C=C/c2ccc(O)c(O)c2)[C@H]1O [Isochlorogenic acid A]	No	63,157.7	0.1	–
Nc1nccc(=O)[nH]1 [Isocytosine]	No	68,813.6	0.1	–
O=C(O)[C@H]1O[C@@H](Oc2c(-c3ccc(O)cc3)oc3cc(O)cc(O)c3c2=O)[C@H](O)[C@@H](O)[C@@H]1O [Kaempferol 3-O-β-D-glucuronide]	No	62,874.6	0.1	–
Cl.N[C@@H](CS)C(=O)O.O [L-Cysteine (hydrochloride hydrate)]	No	69,216.4	0.1	–
N[C@@H](CCO)C(=O)O [L-Homoserine]	No	60,922.1	0.1	–
Nc1ccccc1C(=O)C[C@H](N)C(=O)O [L-Kynurenine]	No	72,824.1	0.1	–
Cl.NCCC[C@H](N)C(=O)O [L-Ornithine (hydrochloride)]	No	–	0.1	–
C[Se]CC[C@H](N)C(=O)O [L-SelenoMethionine]	Yes	31,240.0	1.2	–
Br.CCN1C[C@]2(OC(=O)c3ccccc3NC(C)=O)CC[C@H](OC)[C@@]34[C@@H]2C[C@@H]([C@@H]13)[C@@]1(O)C[C@H](OC)[C@H]2C[C@@H]4[C@]1(O)[C@H]2OC [Lappaconitine (hydrobromide)]	No	76,000.0	0.1	–
CCC[C@@H]1C[C@@H](C(=O)N[C@@H]([C@H]2O[C@H](SC)[C@H](O)[C@@H](O)[C@H]2O)[C@@H](C)O)N(C)C1 [Lincomycin (hydrochloride monohydrate), reference compound]	No	67,751.3	0.1	–
COC(=O)CC(C)=O [Methyl acetylacetate]	No	64,956.3	0.1	–
